Assays:
[1] = tested on: rats with inflammatory soup-sensitized trigeminal ganglia; experiment: In vivo migraine headache model: von Frey periorbital threshold after GTN challenge; set-up: species or system Sprague-Dawley rats
Method: Surgeries were performed as previously described in Oshinsky, M. L. & Gomonchareonsiri, S., Episodic dural stimulation in awake rats: a model for recurrent headache, 47 HEADACHE 1026-1036 (2007). Adult male Sprague-Dawley rats were habituated towards handling for 1-2 weeks before undergoing dural cannulation surgery under isoflurane anesthesia. Attention was given not to disturb the dura. A custom flange guide cannula (22GA, Plastics One) was inserted. The cannula was fixed to the bone with small screws and dental cement.
After 1-2 weeks of recovery from surgery, animals received supradural infusions of an inflammatory soup comprising 2 mM histamine, bradykinin, serotonin, 0.2 mM prostaglandin E2 under brief isoflurane anesthesia (1.5-3%) for 5 consecutive days (1/day) (i.e., the 5-day sensitization period).
The design was within-subjects with the same animals receiving multiple treatments in a crossover fashion with at least one week washout between each treatment. Evoked sensory testing for mechanical allodynia was done by von Frey periorbital threshold testing. Sensory testing occurred during the day using von Frey filaments with reproducible calibrated buckling forces varying from 0.4-10 g and utilizing the up-and-down method. See Dixon, W. J., The Up-and-Down Method for Small Samples, 60 J. AM. STAT. ASSOC., 967-978 (1965); Chaplan, S. R., Bach, F. W., Pogrel, J. W., Chung, J. M. & Yaksh, T. L., Quantitative assessment of tactile allodynia in the rat paw, 53 J. NEUROSCI. METHODS 55-63 (1994) (hereinafter “Chaplan 1994”). Based on the response pattern and the force of the final filament, the periorbital threshold (g) was calculated according to the prior art method set forth, e.g., in Chaplan 1994 and Bonin, R. P., Bories, C. & De Koninck, Y., A simplified up-down method (SUDO) for measuring mechanical nociception in rodents using von Frey filaments, 10 MOL. PAIN 26 (2014). A blinded investigator tested periorbital sensitivity before drug administration, and 45 min and 1.5 h after drug administration. Studies were conducted with n=13-22.

luteinizing hormone (LH) = experiment: Luteinizing hormone (LH) inhibition studies, serum LH by ELISA; type: in vivo, castrated male Sprague-Dawley rats; conditions: for reduction in LH levels: 100 mg/kg
Method: Studies measuring LH were performed on castrated male Sprague-Dawley rats. Briefly, animals were castrated through a midline scrotal incision using Zoletil® 50 as an anesthetic. Surgeries were performed at least 15 days before compound testing.
Serum was collected at baseline, then every 15 minutes starting from 30 minutes after PO […] dosing with vehicle, fezolinetant (30 mg/kg), or SB 235375 (30 and 100 mg/kg). Blood was collected from the jugular vein, transferred into 1.5-mL centrifuge tubes, and centrifuged at 8000 g for 15 minutes to separate the serum. Serum LH levels were determined using a rat luteinizing hormone ELISA kit (Colorimetric, Novus). The assays were performed following the manufacturer's protocol. Group sizes were from n=10 for the vehicle and SB 235375 groups and n=4 for fezolinetant.

CC[C@H](NC(=O)c1c(OCC(=O)O)c(-c2ccccc2)nc2ccccc12)c1ccccc1 [SB 235375]
pain (periorbital) threshold ([1]; GTN + 30 and 100 mg/kg PO, 45, 90 minutes, vs GTN and vehicle): higher pain thresholds | mean LH value (luteinizing hormone (LH); 30 mg/kg PO, 0 min (baseline)): 31.6 ng/mL | mean LH value (luteinizing hormone (LH); 30 mg/kg PO, 30 min): 33.4 ng/mL | mean LH value (luteinizing hormone (LH); 30 mg/kg PO, 90 min): 35.8 ng/mL | mean LH value (luteinizing hormone (LH); 30 mg/kg PO, 150 min): 30.4 ng/mL | increase in LH levels (luteinizing hormone (LH); 30 mg/kg, 30 minutes): ~+4% | increase in LH levels (luteinizing hormone (LH); 30 mg/kg, 90 minutes): ~+13% | reduction in LH levels compared to vehicle (luteinizing hormone (LH); 30 mg/kg, 150 minutes): roughly 4% | mean LH value (luteinizing hormone (LH); 100 mg/kg PO, 0 min (baseline)): 34.7 ng/mL | mean LH value (luteinizing hormone (LH); 100 mg/kg PO, 30 min): 25.7 ng/mL | mean LH value (luteinizing hormone (LH); 100 mg/kg PO, 90 min): 29.7 ng/mL | mean LH value (luteinizing hormone (LH); 100 mg/kg PO, 150 min): 31.1 ng/mL | reduction in LH levels (luteinizing hormone (LH); 30 minutes): roughly 26% | reduction in LH levels (luteinizing hormone (LH); 90 minutes): ~14% | reduction in LH levels (luteinizing hormone (LH); 150 minutes): ~10% | LH levels compared to the vehicle-treated group (luteinizing hormone (LH); 30 and 100 mg/kg): did not exhibit a significant difference

Cc1nsc(-c2nnc3n2CCN(C(=O)c2ccc(F)cc2)[C@@H]3C)n1 [fezolinetant]
withdrawal (periorbital) threshold ([1]; GTN + 30 mg/kg PO, 90 min timepoint, vs saline+vehicle or GTN+vehicle): significantly higher | withdrawal (periorbital) threshold ([1]; GTN + 100 mg/kg PO, both timepoints (45 min, 1.5 h), vs each control group): significantly higher | mean LH value (luteinizing hormone (LH); 30 mg/kg PO, 0 min (baseline)): 37.3 ng/mL | mean LH value (luteinizing hormone (LH); 30 mg/kg PO, 30 min): 15.2 ng/mL | mean LH value (luteinizing hormone (LH); 30 mg/kg PO, 90 min): 6.1 ng/mL | mean LH value (luteinizing hormone (LH); 30 mg/kg PO, 150 min): 5.5 ng/mL | reduction in LH levels compared to vehicle (luteinizing hormone (LH); 30 mg/kg, 30 minutes): approximately 60% | reduction in LH levels compared to vehicle (luteinizing hormone (LH); 30 mg/kg, 90 minutes): roughly 85% | reduction in LH levels compared to vehicle (luteinizing hormone (LH); 30 mg/kg, 150 minutes): roughly 85% | LH serum concentrations (luteinizing hormone (LH); 30 mg/kg, all measured time points (30, 90, and 150 min)): significantly reduced

Source: patent US20250270330A1, “TREATMENT OF HEADACHE DISORDERS WITH NK3 MODULATORS” (Kallyope, Inc., priority 2022, published 2025)
